24 compounds from PubChem BioAssay AID330 (DTP/NCI, 2004) can be followed below.

Several values for one entry are separate records, joined by “and”; a condition that tells them apart may be missing. Identical values can stand only once. Inconclusive results and toxic doses are left out.

This assay relates to P388 leukemia ip, CD2F1 mice, survival T/C. The assay can be described thus: NCI In Vivo Anticancer Drug Screen. Data for tumor model P388 Leukemia (intraperitoneal) in CD2F1 (CDF1) mice. To be noted: endpoint: median survival time, higher = longer survival. A digest of the protocol: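 Mice carrying the transplanted tumor received test compound or vehicle. Survival was recorded in each group, and the value is the treated-group measurement divided by that of the vehicle-treated control group.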

Setting [1] is: dose: 100.0 mg/kg/injection, schedule: Q01DX009 (ip), vehicle: Klucel (hydroxypropylcellulose) (HPC).
[2] abbreviates: dose: 100.0 mg/kg/injection, schedule: Q01DX009 (ip), vehicle: saline with Tween-80.
[3] abbreviates: dose: 200.0 mg/kg/injection, schedule: Q01DX009 (ip), vehicle: Klucel (hydroxypropylcellulose) (HPC).
The mark [4] stands for this setting: dose: 200.0 mg/kg/injection, schedule: Q01DX009 (ip), vehicle: saline with Tween-80.
Setting [5] is: dose: 400.0 mg/kg/injection, schedule: Q01DX009 (ip), vehicle: Klucel (hydroxypropylcellulose) (HPC).
The mark [6] stands for this setting: dose: 50.0 mg/kg/injection, schedule: Q01DX009 (ip), vehicle: saline with Tween-80.
Where [7] appears, read: dose: 50.0 mg/kg/injection, schedule: Q01DX009 (ip), vehicle: Klucel (hydroxypropylcellulose) (HPC).

Turning to `O=S(=O)(O)O.[NH-]CCC[NH-].[Pt+2]`, the T/C was 168 % of control (dose: 6.25 mg/kg/injection, schedule: Q04DX002 (ip), vehicle: saline) and 158 % of control (dose: 12.5 mg/kg/injection, schedule: Q04DX002 (ip), vehicle: saline).

With `CC(O)C(NC(=O)c1ccc([N+](=O)[O-])cc1)C(=O)O` (configuration not stated), the T/C is 105 % of control (dose: 50.0 mg/kg/injection, schedule: Q01DX005 (ip), vehicle: saline); 102 % of control (dose: 100.0 mg/kg/injection, schedule: Q01DX005 (ip), vehicle: saline); 91 % of control (dose: 200.0 mg/kg/injection, schedule: Q01DX005 (ip), vehicle: saline).

As for `Cc1cc(Nc2ccccc2C(=O)N/N=C/c2ccc(N(CCCl)CCCl)cc2)nc2ccc(Cl)cc12`, the T/C by setting is: (dose: 50.0 mg/kg/injection, schedule: Q01DX009 (ip), vehicle: saline) 95 % of control; (dose: 100.0 mg/kg/injection, schedule: Q01DX009 (ip), vehicle: saline) 90 % of control; (dose: 200.0 mg/kg/injection, schedule: Q01DX009 (ip), vehicle: saline) 95 % of control.

For the compound `Nc1nc(N)c(Nc2ccc(Cl)cc2)c(Cl)n1`, the T/C reads like this: (dose: 25.0 mg/kg/injection, schedule: Q01DX001 (ip), vehicle: saline with Tween-80) 102 % of control; (dose: 50.0 mg/kg/injection, schedule: Q01DX001 (ip), vehicle: saline with Tween-80) 101 % of control; (dose: 100.0 mg/kg/injection, schedule: Q01DX001 (ip), vehicle: saline with Tween-80) 95 % of control.

With `O=C(Nc1ccc([N+](=O)[O-])cc1)Nc1ccc([N+](=O)[O-])cc1` (tested in a mixture with another compound), the T/C under setting [1] was 103 % of control; the T/C under setting [2] is 100 % of control; the T/C under setting [3] was 117 % of control; the T/C under setting [4] was 100 % of control; the T/C under setting [5] is 117 % of control; the T/C (dose: 400.0 mg/kg/injection, schedule: Q01DX009 (ip), vehicle: saline with Tween-80) was 104 % of control.

`CN(C)CCN(C)CC(C)(C)C(=O)/C=C/c1ccc(Cl)c(Cl)c1`: the T/C is 102 % of control and 107 % of control (dose: 3.75 mg/kg/injection, schedule: Q01DX005 (ip), vehicle: saline); 98 % of control and 95 % of control (dose: 7.5 mg/kg/injection, schedule: Q01DX005 (ip), vehicle: saline); 99 % of control and 100 % of control and 97 % of control (dose: 15.0 mg/kg/injection, schedule: Q01DX005 (ip), vehicle: saline); 101 % of control and 102 % of control (dose: 30.0 mg/kg/injection, schedule: Q01DX005 (ip), vehicle: saline).

With `FC(F)(F)c1cccc(N(c2nc(Cl)nc(Cl)n2)c2nc(Cl)nc(Cl)n2)c1`, the T/C (dose: 50.0 mg/kg/injection, schedule: Q01DX009 (ip), vehicle: suspension in saline) was 94 % of control; the T/C (dose: 100.0 mg/kg/injection, schedule: Q01DX009 (ip), vehicle: suspension in saline) was 92 % of control; the T/C (dose: 200.0 mg/kg/injection, schedule: Q01DX009 (ip), vehicle: suspension in saline) was 91 % of control.

As for `CCCCCCCCCCCC(=O)c1c(O)c2ccccc2oc1=O`, the T/C is 95 % of control (dose: 50.0 mg/kg/injection, schedule: Q01DX005 (ip), vehicle: saline with Tween-80) and 94 % of control (dose: 100.0 mg/kg/injection, schedule: Q01DX005 (ip), vehicle: saline with Tween-80).

With `CCOC(=O)C(=O)Nc1sc(C)c(C)c1C#N`, the T/C is 90 % of control (dose: 50.0 mg/kg/injection, schedule: Q01DX009 (ip), vehicle: saline + alcohol); 98 % of control (dose: 100.0 mg/kg/injection, schedule: Q01DX009 (ip), vehicle: saline + alcohol); 105 % of control (dose: 200.0 mg/kg/injection, schedule: Q01DX009 (ip), vehicle: saline + alcohol).

As to `CN=C(NCCCOC)c1ccc(NC(=O)Nc2ccc(NC(=O)Nc3ccc(C(=NC)NCCCOC)cc3)cc2)cc1`, the T/C (dose: 50.0 mg/kg/injection, schedule: Q01DX005 (ip), vehicle: Klucel (hydroxypropylcellulose) (HPC)) was 150 % of control.

Take `COc1ccc(C(C)c2cc3c(cc2OC)OCO3)cc1OC` (configuration not stated): the T/C (dose: 50.0 mg/kg/injection, schedule: Q01DX005 (ip), vehicle: distilled water + Tween-80) was 99 % of control; the T/C (dose: 100.0 mg/kg/injection, schedule: Q01DX005 (ip), vehicle: distilled water + Tween-80) was 98 % of control; the T/C (dose: 200.0 mg/kg/injection, schedule: Q01DX005 (ip), vehicle: distilled water + Tween-80) is 100 % of control.

As for `COc1cc2c(c(OC)c1O)-c1ccc(SC)c(=O)cc1C(NC(C)=O)CC2` (configuration not stated), the T/C (dose: 1.25 mg/kg/injection, schedule: Q01DX009 (ip), vehicle: saline) was 117 % of control.

In the case of `CC1(C)CC(OP2(=O)NCCCO2)CC(C)(C)N1O` (configuration not stated), the T/C is, setting by setting: (dose: 27.5 mg/kg/injection, schedule: Q01DX001 (ip), vehicle: saline) 150 % of control; (dose: 55.0 mg/kg/injection, schedule: Q01DX001 (ip), vehicle: saline) 165 % of control.

Turning to `COc1cc(C(=O)N=Nc2c(O)[nH]c3ccc(Br)cc23)cc(OC)c1OC`, the T/C was 115 % of control (dose: 3.13 mg/kg/injection, schedule: Q01DX009 (ip), vehicle: Klucel (hydroxypropylcellulose) (HPC)); 106 % of control (dose: 6.25 mg/kg/injection, schedule: Q01DX009 (ip), vehicle: Klucel (hydroxypropylcellulose) (HPC)); 105 % of control (dose: 12.5 mg/kg/injection, schedule: Q01DX009 (ip), vehicle: Klucel (hydroxypropylcellulose) (HPC)); 86 % of control under setting [5].

Consider `Cc1ccc(S(=O)(=O)N/N=C2\C(=N\NS(=O)(=O)c3ccc(C)cc3)C3c4ccccc4C2c2ccccc23)cc1`, for which the T/C was 105 % of control (dose: 60.0 mg/kg/injection, schedule: Q01DX005 (ip), vehicle: saline with Tween-80); 96 % of control (dose: 120.0 mg/kg/injection, schedule: Q01DX005 (ip), vehicle: saline with Tween-80); 95 % of control (dose: 240.0 mg/kg/injection, schedule: Q01DX005 (ip), vehicle: saline with Tween-80).

As to `CCOC(=O)/C=C(\C)Sc1cc(O)c2ccccc2c1O`, the T/C by setting is: (dose: 12.5 mg/kg/injection, schedule: Q01DX009 (ip), vehicle: saline with Tween-80) 119 % of control; under setting [6], 108 % of control.

On to `Cc1ccc(S(=O)(=O)OCC2(COCc3ccccc3)CCCCC2=O)cc1` (configuration not stated), for which the T/C runs as follows: under setting [7], 106 % of control; under setting [1], 92 % of control; under setting [3], 95 % of control.

Regarding `Cc1ccc(N=Nc2c(O)n(-c3ccccc3C)c(=S)n(-c3ccc(Br)cc3)c2=O)cc1`, the T/C was 100 % of control under setting [6] and 101 % of control under setting [2].

Consider `C(=NCCN=Cc1ccc2c(c1)OCO2)c1ccc2c(c1)OCO2`, for which the T/C (dose: 25.0 mg/kg/injection, schedule: Q01DX009 (ip), vehicle: saline with Tween-80) was 93 % of control; the T/C under setting [6] was 92 % of control; the T/C under setting [2] was 99 % of control; the T/C under setting [4] is 100 % of control.

Turning to `COC(=O)C1OC(SCCN)C(O)C(O)C1O` (configuration not stated), the T/C was 100 % of control (dose: 50.0 mg/kg/injection, schedule: Q01DX009 (ip), vehicle: water); 102 % of control (dose: 100.0 mg/kg/injection, schedule: Q01DX009 (ip), vehicle: water); 91 % of control (dose: 200.0 mg/kg/injection, schedule: Q01DX009 (ip), vehicle: water).

Turning to `CCOc1ccc(/C=C/c2ccc3ccccc3[n+]2C)cc1OCC`, the T/C runs as follows: (dose: 0.78 mg/kg/injection, schedule: Q01DX009 (ip), vehicle: saline with Tween-80) 102 % of control; (dose: 1.56 mg/kg/injection, schedule: Q01DX009 (ip), vehicle: saline with Tween-80) 111 % of control.

For the compound `CC=O`, the T/C (dose: 0.5 % in 0.5 ml injection vol, schedule: Q01DX009 (ip), vehicle: water) was 100 % of control and 103 % of control and 109 % of control; the T/C (dose: 1.0 % in 0.5 ml injection vol, schedule: Q01DX009 (ip), vehicle: water) is 104 % of control and 112 % of control; the T/C (dose: 2.0 % in 0.5 ml injection vol, schedule: Q01DX009 (ip), vehicle: water) is 117 % of control.

Consider `CN1/C(=C/C(=S)SCC(=O)c2ccccc2)C=Cc2ccccc21`, for which the T/C (dose: 50.0 mg/kg/injection, schedule: Q04DX002 (ip), vehicle: saline with Tween-80) was 94 % of control; the T/C (dose: 100.0 mg/kg/injection, schedule: Q04DX002 (ip), vehicle: saline with Tween-80) was 90 % of control; the T/C (dose: 200.0 mg/kg/injection, schedule: Q04DX002 (ip), vehicle: saline with Tween-80) was 88 % of control.

Consider `O=[N+]([O-])c1cccc(C2CC(c3ccccc3)=Nc3ccccc3S2)c1` (configuration not stated), for which the T/C reads like this: under setting [7], 107 % of control; under setting [1], 100 % of control.
